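GI50: concentration for 50% inhibition of growth. TGI: concentration producing complete growth inhibition.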
Assays:
Experiment in all cases: NCI tumour cell line growth inhibition, 384-well format
HCT-116 colon = system: HCT-116 colon
SF-295 CNS = system: SF-295 CNS
NCI-H522 lung = system: NCI-H522 lung
SF-539 CNS = system: SF-539 CNS
HOP-62 NSCLC = system: HOP-62 NSCLC
NCI-H23 lung = system: NCI-H23 lung
MOLT-4 leukemia = system: MOLT-4 leukemia
SK-OV-3 ovarian = system: SK-OV-3 ovarian
OVCAR-8 ovarian = system: OVCAR-8 ovarian
SNB-75 CNS = system: SNB-75 CNS
RXF 393 renal = system: RXF 393 renal
SW-620 colon = system: SW-620 colon
MCF7 breast = system: MCF7 breast
DU-145 prostate = system: DU-145 prostate
M14 melanoma = system: M14 melanoma
NCI/ADR-RES ovarian = system: NCI/ADR-RES ovarian
NCI-H226 lung = system: NCI-H226 lung
SNB-19 CNS = system: SNB-19 CNS
HL-60(TB) leukemia = system: HL-60(TB) leukemia
MDA-MB-435 melanoma = system: MDA-MB-435 melanoma
UO-31 renal = system: UO-31 renal
BT-549 breast = system: BT-549 breast
MDA-MB-231 breast = system: MDA-MB-231 breast
UACC-257 melanoma = system: UACC-257 melanoma
U251 glioblastoma = system: U251 glioblastoma
OVCAR-4 ovarian = system: OVCAR-4 ovarian
OVCAR-3 ovarian = system: OVCAR-3 ovarian
SN12C renal = system: SN12C renal
OVCAR-5 ovarian = system: OVCAR-5 ovarian
TK-10 renal = system: TK-10 renal
HT29 colon = system: HT29 colon
RPMI-8226 leukemia = system: RPMI-8226 leukemia
HCT-15 colon = system: HCT-15 colon
CAKI-1 renal = system: CAKI-1 renal
A549 NSCLC = system: A549 NSCLC
SR leukemia = system: SR leukemia
NCI-H322M lung = system: NCI-H322M lung
786-0 renal = system: 786-0 renal
LOX IMVI melanoma = system: LOX IMVI melanoma
IGROV1 ovarian = system: IGROV1 ovarian
SK-MEL-28 melanoma = system: SK-MEL-28 melanoma
SK-MEL-5 melanoma = system: SK-MEL-5 melanoma
HCC-2998 colon = system: HCC-2998 colon
MALME-3M melanoma = system: MALME-3M melanoma
NCI-H460 NSCLC = system: NCI-H460 NSCLC
MDA-MB-468 breast = system: MDA-MB-468 breast
UACC-62 melanoma = system: UACC-62 melanoma
ACHN renal = system: ACHN renal
EKVX NSCLC = system: EKVX NSCLC
KM12 colon = system: KM12 colon
HOP-92 NSCLC = system: HOP-92 NSCLC
PC-3 prostate = system: PC-3 prostate
A498 renal = system: A498 renal
T-47D breast = system: T-47D breast
SF-268 CNS = system: SF-268 CNS
COLO 205 colon = system: COLO 205 colon
HS 578T breast = system: HS 578T breast

CC(C)C[C@H](NC(=O)[C@H](CCc1ccccc1)NC(=O)CN1CCOCC1)C(=O)N[C@@H](Cc1ccccc1)C(=O)N[C@@H](CC(C)C)C(=O)[C@@]1(C)CO1
GI50 (HCT-116 colon): < 10 nM | TGI (HCT-116 colon): < 10 nM | GI50 (SF-295 CNS): 13.2 nM | TGI (SF-295 CNS): 26.1 nM | GI50 (NCI-H522 lung): < 10 nM | TGI (NCI-H522 lung): 10.8 nM | GI50 (SF-539 CNS): < 10 nM | TGI (SF-539 CNS): < 10 nM | GI50 (HOP-62 NSCLC): < 10 nM | TGI (HOP-62 NSCLC): < 10 nM | GI50 (NCI-H23 lung): < 10 nM | TGI (NCI-H23 lung): < 10 nM | GI50 (MOLT-4 leukemia): < 10 nM | TGI (MOLT-4 leukemia): < 10 nM | GI50 (SK-OV-3 ovarian): 14.1 nM | TGI (SK-OV-3 ovarian): 33.6 nM | GI50 (OVCAR-8 ovarian): 14.6 nM | TGI (OVCAR-8 ovarian): 28 nM | GI50 (SNB-75 CNS): 15.4 nM | TGI (SNB-75 CNS): 30.6 nM | GI50 (RXF 393 renal): < 10 nM | TGI (RXF 393 renal): < 10 nM | GI50 (SW-620 colon): < 10 nM | TGI (SW-620 colon): < 10 nM | GI50 (MCF7 breast): < 10 nM | TGI (MCF7 breast): 12.4 nM | GI50 (DU-145 prostate): < 10 nM | TGI (DU-145 prostate): 19.5 nM | GI50 (M14 melanoma): < 10 nM | TGI (M14 melanoma): 19.1 nM | GI50 (NCI/ADR-RES ovarian): 422 nM | TGI (NCI/ADR-RES ovarian): 1610 nM | GI50 (NCI-H226 lung): < 10 nM | TGI (NCI-H226 lung): < 10 nM | GI50 (SNB-19 CNS): 12.3 nM | TGI (SNB-19 CNS): 38.8 nM | GI50 (HL-60(TB) leukemia): < 10 nM | TGI (HL-60(TB) leukemia): < 10 nM | GI50 (MDA-MB-435 melanoma): < 10 nM | TGI (MDA-MB-435 melanoma): 21.5 nM | GI50 (UO-31 renal): 35.9 nM | TGI (UO-31 renal): 110 nM | GI50 (BT-549 breast): < 10 nM | TGI (BT-549 breast): < 10 nM | GI50 (MDA-MB-231 breast): < 10 nM | TGI (MDA-MB-231 breast): < 10 nM | GI50 (UACC-257 melanoma): 14.6 nM | TGI (UACC-257 melanoma): 28.8 nM | GI50 (U251 glioblastoma): < 10 nM | TGI (U251 glioblastoma): 21.2 nM | GI50 (OVCAR-4 ovarian): < 10 nM | TGI (OVCAR-4 ovarian): 18.3 nM | GI50 (OVCAR-3 ovarian): < 10 nM | TGI (OVCAR-3 ovarian): < 10 nM | GI50 (SN12C renal): 15 nM | TGI (SN12C renal): 29.1 nM | GI50 (OVCAR-5 ovarian): 17.3 nM | TGI (OVCAR-5 ovarian): 45.3 nM | GI50 (TK-10 renal): 21.2 nM | TGI (TK-10 renal): 54 nM | GI50 (HT29 colon): < 10 nM | TGI (HT29 colon): < 10 nM | GI50 (RPMI-8226 leukemia): < 10 nM | TGI (RPMI-8226 leukemia): < 10 nM | GI50 (HCT-15 colon): 23.9 nM | TGI (HCT-15 colon): 86.9 nM | GI50 (CAKI-1 renal): 17.6 nM | TGI (CAKI-1 renal): 53.9 nM | GI50 (A549 NSCLC): < 10 nM | TGI (A549 NSCLC): 25.7 nM | GI50 (SR leukemia): < 10 nM | TGI (SR leukemia): < 10 nM | GI50 (NCI-H322M lung): 15.5 nM | TGI (NCI-H322M lung): 33.7 nM | GI50 (786-0 renal): < 10 nM | TGI (786-0 renal): 16.5 nM | GI50 (LOX IMVI melanoma): < 10 nM | TGI (LOX IMVI melanoma): < 10 nM | GI50 (IGROV1 ovarian): 15 nM | TGI (IGROV1 ovarian): 30.1 nM | GI50 (SK-MEL-28 melanoma): 17.2 nM | TGI (SK-MEL-28 melanoma): 36.8 nM | GI50 (SK-MEL-5 melanoma): < 10 nM | TGI (SK-MEL-5 melanoma): 21.6 nM | GI50 (HCC-2998 colon): < 10 nM | TGI (HCC-2998 colon): 14 nM | GI50 (MALME-3M melanoma): < 10 nM | TGI (MALME-3M melanoma): 18.8 nM | GI50 (NCI-H460 NSCLC): 18.2 nM | TGI (NCI-H460 NSCLC): 33.6 nM | GI50 (MDA-MB-468 breast): < 10 nM | TGI (MDA-MB-468 breast): 16.1 nM | GI50 (UACC-62 melanoma): < 10 nM | TGI (UACC-62 melanoma): 19.3 nM | GI50 (ACHN renal): 33.2 nM | TGI (ACHN renal): 109 nM | GI50 (EKVX NSCLC): 13.1 nM | TGI (EKVX NSCLC): 36.2 nM | GI50 (KM12 colon): < 10 nM | TGI (KM12 colon): < 10 nM | GI50 (HOP-92 NSCLC): 11.6 nM | TGI (HOP-92 NSCLC): 24.3 nM | GI50 (PC-3 prostate): 10.5 nM | TGI (PC-3 prostate): 23.3 nM | GI50 (A498 renal): < 10 nM | TGI (A498 renal): 24.5 nM | GI50 (T-47D breast): < 10 nM | TGI (T-47D breast): 18 nM | GI50 (SF-268 CNS): < 10 nM | TGI (SF-268 CNS): < 10 nM | GI50 (COLO 205 colon): 28.3 nM | TGI (COLO 205 colon): 105 nM | GI50 (HS 578T breast): < 10 nM | TGI (HS 578T breast): < 10 nM

From PubChem BioAssay (NCI)
